Square brackets hold non-standard residues; d marks the D form. Peptide text beside a SMILES is read from it. Aib = CC(C)(N)C(=O)O
Key:
Oral bioavailability = conditions: in vivo, rodents
Experimental: In some embodiments a pharmaceutical composition of the invention is an oral administration form. […] In some embodiments, the oral availability of the pharmaceutical composition of the invention is in the range of 10%. In another embodiment, the oral availability of the pharmaceutical composition of the invention is above 10%. In some embodiments the pharmaceutical composition is administered once a day, twice a day or three times a day.

[1] = 50° C.
[2] = DSC heating above the melting point, residue analyzed by TLC; assay type: physicochemical; conditions: DSC heating cycle
Text: During the second heating cycle the peak of melting was missing, only the high temperature decomposition was observed. […]

[3] = Stability test of the crystalline salt at 50° C.; assay type: physicochemical; conditions: 48 hours
[4] = Hygroscopicity at 58-60% relative humidity; assay type: physicochemical; conditions: 20-25° C.

Compound	solubility of crystalline forms (Solubility in water)	Solubility at 24° C. (Solubility in water; deionized water, 24° C., stirred 1 hr, filtered, filtrate evaporated) [w/w %]	solubility in water (concentration of solution) (Solubility in water; deionized water, room temperature) [w/w %]	bioavailability (Oral bioavailability) [%]	stability of 70 w/w % aqueous solution (degradation) ([1]; 48 hours)	thermal stability of 70 w/w % solution in water (decomposition by TLC) ([1]; N2 atmosphere, 24 hrs)	decomposition after heating above the melting point [2]	stability of crystalline salt (degradation) [3]	hygroscopicity: weight increase of crystals ([4]; 24 hours) [%]	hygroscopicity: weight increase of crystals ([4]; 48 hours) [%]
CC(C)(NC(=O)[C@H](N)Cc1c[nH]c2ccccc12)C(=O)O [compound (1)] (H-[dW]-[Aib]-OH)	very poor solubility	1.3	1.3	~5	–	–	–	–	–	–
CC(C)(NC(=O)[C@H](N)Cc1c[nH]c2ccccc12)C(=O)O [UB-18813] (H-[dW]-[Aib]-OH)	–	–	–	–	no degradation was observed	No traces of decomposition	no decomposition	no degradation was observed	2.64	3.4

— US12703685B2, “Crystalline forms of solvates of tryptophan derivatives, compositions comprising them and uses thereof” (GALIMEDIX THERAPEUTICS INC., priority 2020, dated 2026)
